{
  "source": "paper PMC11799930",
  "about": "“Discovery of potent measles virus fusion inhibitor peptides via structure-guided derivatization” (RSC Medicinal Chemistry, 2025)",
  "key": {"[1]": {"experiment": "in vitro", "conditions": "bovine"}, "[2]": {"system": "MeV-EGFP", "experiment": "Virus-mediated cell-to-cell fusion assay (syncytia in Vero/hSLAM cells infected with MeV-EGFP)", "assay_type": "cell-based, Measles virus", "conditions": "48 h, qualitative", "description": "(§1) To evaluate how modifying the C-terminus of FIP affects the interactions of FIP and MeV-F, we synthesized three FIP derivatives, named FIP-G3A, FIP-G3a, and FIP-NH2 (Fig. 2a). The inhibitory activities of the derivatives were evaluated using a virus-mediated cell-to-cell fusion assay (Fig. 2b). In this assay, Vero cells stably expressing hSLAM (Vero/hSLAM cells)[21] were infected with EGFP-recombinant MeV (MeV-EGFP) for 1 h at 37 °C, then the medium containing MeV-EGFP was replaced with a medium containing each FIP derivative and incubated at 37 °C for 48 h. The inhibitory activity was assessed based on the size and area of the syncytia observed by fluorescence microscopy, albeit qualitatively. […] To more quantitatively compare the inhibitory activity of FIP and FIP-NH2 against MeV infection in cells, a viral entry inhibition assay was conducted using a serially diluted compound, and the IC50 and IC90 values of the compounds were determined. In this assay, Vero/hSLAM cells were infected with inhibitor-treated MeV-EGFP at 37 °C for 1 h. Subsequently, the supernatant was replaced with a medium containing 100 μM of FIP, and the cells were further incubated at 37 °C for 48 h. Finally, the number of virus-infected cells was quantified using fluorescence microscopy. […]\nVirus-mediated cell-to-cell fusion assay. Vero/hSLAM cells were cultured in 96 well plates (Thermo scientific cat#167008) overnight at 37 ℃. Vero/hSLAM cells were then infected with MeV-EGFP (200 pfu / well) for 1 h. The supernatant, including the virus, was replaced with 10% FBS/DMEM with or without 1, 10, 100 µM FIP or a FIP derivative. The images of cell-to-cell fusion were captured by fluorescence microscopy (BZ-X710, keyence) after incubation for 48 h at 37 ℃."}, "[3]": {"system": "MeV", "parameters": "method as in PMID 7414950", "conditions": "plaque assay for MeV; cited from earlier work"}, "[4]": {"experiment": "physchem", "assay_type": "physicochemical"}, "[5]": {"conditions": "1 μM inhibitor in serum"}, "[6]": {"biological_target": "T1, MeV-F wild type (Measles virus, UniProt Q786F3)", "T1 construct": "wild-type full-length MeV-H (pCA7-ICH) and MeV-F; expressed in transfected cells; host or cells: Vero/hSLAM cells", "assay_type": "cell-based", "conditions": "qualitative; for inhibition of syncytia formation: 24 h", "from_the_text": "To obtain new interactions, we designed and synthesized FIP-NH2 derivatives in which Gly residue is replaced with a D-amino acid residue shown in Fig. 3a (FIP-G3x-NH2, x = d, e, h, k, n, q, r, s, t). To avoid proteolytic degradation of the derivatized peptides, D-amino acid residues were adopted. Because FIP consists of hydrophobic structures, polar residues were recruited for replacing the Gly residue to avoid poor aqueous solubility of the resulting derivatives. The inhibitory activities of the synthesized derivatives were evaluated by cell-to-cell fusion assay. In this assay, each FIP derivative was added to the medium of Vero/hSLAM cells transiently expressing MeV-F, MeV-H, and EGFP, and the cells were incubated at 37 °C for 24 h. The cells were observed under a fluorescence microscope, and inhibition of the syncytia formation was qualitatively assessed based on the size and area of emitting fluorescence (Fig. 3b). We also synthesized and evaluated the reverse sequence of FIP, FIP-rev (Z-Gly-Phe-D-Phe-OH), and the enantiomer of FIP, FIP-enan (Z-Phe-D-Phe-Gly-OH), as negative controls.\nFig. 3 Chemical structures and cell-to-cell fusion assay of FIP and its derivatives using Vero/hSLAM cells expressing MeV-F and MeV-H. a) Chemical structures of FIP and its derivatives. b) A schematic illustration of cell-to-cell fusion assay. […] All the experiments were conducted in triplicate. […]\n(BZ-X710, keyence) after incubation for 48 h at 37 ℃.\nCell-to-cell fusion assay using wild-type MeV-F plasmid. Vero/hSLAM cells in 96-well plate were transfected with 0.01 µg pCA7-ICH, 0.0375 µg pCA7-ICF and 0.3 µg pCA7 plasmid encoding EGFP (pCA7-EGFP) using VeroFect (0.695 µL, OZ Biosciences) in 10% FBS/DMEM when the confluency of the cells was about 90%. FIP or an FIP derivative in DMSO was added in each sample to 100 or 0.5 µM as the final […]\nconcentration. […]"}, "[7]": {"system": "MeV-EGFP", "conditions": "viral entry inhibition assay; for IC50 / IC90: Vero/hSLAM cells, MeV-EGFP; for IC50: triplicate; for IC90: calculated from Hill coefficient and IC50", "description": "as §1\npfu/well and incubated with peptide solution in 10% FBS/DMEM containing 0–1% DMSO for 30 min at room temperature. Vero/hSLAM cells were then infected with the inhibitor-treated MeV-EGFP for 1 h at 37 °C. The supernatant, including the virus, was replaced with 100 µM FIP (Peptide Institute, Inc. cat#4092) solution in 0–1% DMSO in 10% FBS/DMEM, and EGFP-positive cells were counted under fluorescence microscopy (BZ-X710, keyence) after incubation for 48 h at 37 ℃. The entry inhibition rate was calculated as 100 − (the number of sample EGFP positive cells − the number of cell-only control EGFP positive cells) / (the number of viral control EGFP positive cells − the number of cell-only control EGFP positive cells) × 100. This experiment was performed in triplicate. IC50 values were calculated using parameters determined by fitting the plot to a four-parameter logistic regression model (Hill equation) implemented in Python (Matplotlib and SciPy libraries). The equation used was: y = d + (a – d) / (1 + (x / c)b). x, y, a, b, c, and d represent peptide concentration, fraction of infected cells, maximum response, Hill coefficient (degree of cooperativity), IC50, and minimum response, respectively. Curve fitting was performed using the curve_fit function from the SciPy library, and IC90 values were calculated using the derived Hill coefficient and IC50 values. […]\n(BZ-X710, keyence) after incubation for 48 h at 37 ℃. […]"}, "[8]": {"biological_target": "MeV-F (prefusion-stabilized ectodomain trimer)", "experiment": "Surface plasmon resonance (SPR) binding to MeV-F", "parameters": "species or system Measles virus", "conditions": "peptides (EG-K derivatives) immobilized on sensor chip, MeV-F as analyte, 25 °C"}, "[9]": {"biological_target": "T2, E471S mutant of MeV-F (Measles virus, UniProt Q786F3, E471S)", "T2 construct": "Full-length E471S MeV-F was amplified through PCR and site-directed mutagenesis; expressed in transfected cells; host or cells: Vero cells per the methods", "experiment": "Cell-to-cell fusion assay using MeV-F E471S mutant", "assay_type": "cell-based", "conditions": "Fig. 4e, qualitative", "from_the_text": "To identify the plausible new interactions formed between FIP-G3r-NH2 and MeV-F, we conducted docking simulations using Autodock Vina.[22,23] First, we conducted a docking simulation of FIP and MeV-F to assess the reliability of the docking simulations (Fig. 4a). […] We then conducted a docking simulation of FIP-G3r-NH2 and MeV-F (Fig. 4c). We found a docking pose in which the binding conformation of the main chain and the aromatic ring of FIP-G3r-NH2 is similar to that of FIP (Fig. 4d). […] It should be noted that the MeV-F E471S mutant protein was synthetically produced for this experiment, and, to our knowledge, this mutant has not been reported as a natural variant. […]\npfu/well and incubated with peptide solution in 10% FBS/DMEM containing 0–1% DMSO for 30 min at room temperature. […] The supernatant, including the virus, was replaced with 100 µM FIP (Peptide Institute, Inc. cat#4092) solution in 0–1% DMSO in 10% FBS/DMEM, and EGFP-positive cells were counted under fluorescence microscopy (BZ-X710, keyence) after incubation for 48 h at 37 ℃. The entry inhibition rate was calculated as 100 − (the number of sample EGFP positive cells − the number of cell-only control EGFP positive cells) / (the number of viral control EGFP positive cells − the number of cell-only control EGFP positive cells) × 100. […]"}},
  "note": "Entries after “also recorded” stand apart in the source; their conditions may differ. Read-outs that look alike come from different tables or passages of the source. Where a SMILES comes first, the peptide text is derived from it. [ ]: non-standard residue; d: D form. The star is where a group is joined. Cbz = O=C(OCc1ccccc1)*; AEEA = NCCOCCOCC(=O)O",
  "data": [
    {"compound": "O=C(O)CNC(=O)[C@H](Cc1ccccc1)NC(=O)[C@@H](Cc1ccccc1)NC(=O)OCc1ccccc1", "note": "[FIP, Z-D-Phe-Phe-Gly, reference compound] (Cbz-[dF]-Phe-Gly-OH)", "values": [
      {"measurement": "half-life at 1 μM", "setting": "[1]", "value": "> 1440", "unit": "min"},
      {"measurement": "inhibition of syncytia formation", "setting": "[2]; 1 μM", "value": "inhibited fusion only weakly"},
      {"measurement": "inhibition of syncytia formation", "setting": "[2]; 10 μM", "value": "strongly inhibited syncytia formation"},
      {"measurement": "inhibition of syncytia formation", "setting": "[2]; 100 μM", "value": "strongly inhibited syncytia formation"},
      {"measurement": "IC50", "setting": "[3]", "value": 200, "unit": "nM"},
      {"measurement": "solubility", "setting": "[4]", "value": "98 ± 1", "unit": "µM"},
      {"measurement": "proteolytic stability in serum", "setting": "[5]", "value": "high proteolytic stability"},
      {"measurement": "inhibition of syncytia formation", "setting": "[6]; 0.5 μM", "value": "weakly inhibited syncytia formation"},
      {"measurement": "inhibition of syncytia formation", "setting": "[6]; 100 μM", "value": "strongly inhibited syncytia formation"},
      {"measurement": "IC50", "setting": "[7]", "value": 1300, "unit": "nM"},
      {"measurement": "IC90", "setting": "[7]", "value": 12, "unit": "µM"}
    ]},
    {"compound": "N=C(N)NCCC[C@@H](NC(=O)[C@H](Cc1ccccc1)NC(=O)[C@@H](Cc1ccccc1)NC(=O)OCc1ccccc1)C(N)=O", "note": "[FIP-G3r-NH2] (Cbz-[dF]-Phe-[dR]-NH2)", "values": [
      {"measurement": "half-life at 1 μM", "setting": "[1]", "value": "> 1440", "unit": "min"},
      {"measurement": "Kd", "setting": "[8]", "value": 6.6, "unit": "nM"},
      {"measurement": "membrane fusion inhibitory activity", "setting": "[9]", "value": "dropped to the same level as FIP"},
      {"measurement": "solubility", "setting": "[4]", "value": "83 ± 4", "unit": "µM"},
      {"measurement": "proteolytic stability in serum", "setting": "[5]", "value": "high proteolytic stability"},
      {"measurement": "inhibition of syncytia formation", "setting": "[6]; 0.5 μM", "value": "higher inhibitory activity than FIP-NH2; also recorded: completely inhibited the syncytia formation"},
      {"measurement": "membrane fusion inhibitory activity", "setting": "[6]; MeV-F wild type (WT), Fig. 4e", "value": "higher membrane fusion inhibitory activity than FIP"},
      {"measurement": "IC50", "setting": "[7]", "value": 210, "unit": "nM"},
      {"measurement": "IC90", "setting": "[7]", "value": 1.8, "unit": "µM"},
      {"measurement": "fold higher inhibitory activity than FIP (IC50)", "setting": "[7]; relative to FIP", "value": "about six-fold"}
    ]},
    {"compound": "N=C(N)NCCC[C@@H](NC(=O)[C@H](Cc1ccccc1)NC(=O)[C@@H](Cc1ccccc1)NC(=O)OCc1ccccc1)C(=O)NCCOCCOCC(=O)N[C@@H](CCCCN)C(N)=O", "note": "[FIP-G3r-NH-EG-K] (Cbz-[dF]F[dR][AEEA]K-NH2)", "values": [
      {"measurement": "Kd", "setting": "[8]", "value": 6.6, "unit": "nM"}
    ]},
    {"compound": "NC(=O)CNC(=O)[C@H](Cc1ccccc1)NC(=O)[C@@H](Cc1ccccc1)NC(=O)OCc1ccccc1", "note": "[FIP-NH2] (Cbz-[dF]-Phe-Gly-NH2)", "values": [
      {"measurement": "inhibition of syncytia formation", "setting": "[2]; 1 μM", "value": "a little higher inhibitory activity than FIP"},
      {"measurement": "inhibitory activity against MeV-induced cell fusion compared with FIP", "setting": "[2]; 100, 10 or 1 μM", "value": "did not decrease the inhibitory activity"},
      {"measurement": "Kd", "setting": "[8]", "value": 81, "unit": "nM"},
      {"measurement": "IC50", "setting": "[7]", "value": 510, "unit": "nM"},
      {"measurement": "IC90", "setting": "[7]", "value": 3.6, "unit": "µM"}
    ]},
    {"compound": "NCCCC[C@H](NC(=O)COCCOCCNC(=O)CNC(=O)[C@H](Cc1ccccc1)NC(=O)[C@@H](Cc1ccccc1)NC(=O)OCc1ccccc1)C(N)=O", "note": "[FIP-NH-EG-K] (Cbz-[dF]FG[AEEA]K-NH2)", "values": [
      {"measurement": "Kd", "setting": "[8]", "value": 81, "unit": "nM"}
    ]},
    {"compound": "Cbz-Gly-Phe-[dF]-OH [FIP-rev]", "values": [
      {"measurement": "inhibition of syncytia formation", "setting": "[6]; 100 μM", "value": "lower inhibitory activity than FIP"}
    ]},
    {"compound": "Cbz-Phe-[dF]-Gly-OH [FIP-enan]", "values": [
      {"measurement": "inhibition of syncytia formation", "setting": "[6]; 100 μM", "value": "lower inhibitory activity than FIP"}
    ]}
  ]
}
